The test system of one data set is MDCK. Description: Substrate activity at p-glycoprotein in MDCK cells overexpressing MDR1 assessed as efflux ratio of permeability from basolateral to apical side over apical to basolateral side. The format is cell-based. Conditions: Canis lupus familiaris.
Data set [1] in a line: Cmax in rat administered as single dose. The settings on record: in vivo. The format is ADME.
The nature of data set [2]: Clearance in iv dosed rat. The data set is classed as ADME, organism-based. Conditions: in vivo.
The nature of data set [3]: Brain to plasma ratio in iv dosed rat measured after 30 mins. The data set is classed as ADME, organism-based. Conditions: read-out: BPR.
Data set [4] in a line: Equilibrium solubility of the compound at pH 7.4. The format is physicochemical. The settings on record: buffer.
In data set [5] the target is Voltage-gated inwardly rectifying potassium channel KCNH2 (Homo sapiens, UniProt Q12809). The data set can be described thus: Inhibition of recombinant hERG in the presence of dofetilide by competitive binding assay. The format is toxicity.
Data set [6] is described as follows: Apparent permeability across apical to basolateral side in MDCK cells. The data set is classed as ADME, cell-based, Canis lupus familiaris. Conditions: dog.
Data set [7] in a line: Toxicity in rat assessed as NOAEL administered as single dose. The settings on record: in vivo.
Data set [8] can be described thus: Toxicity in langendorff-perfused guinea pig heart assessed as effect on PR interval at 10 uM. The format is tissue-based, Cavia porcellus.
Data set [9] is filed under the species Cavia porcellus. The data set can be described thus: Effect on fingolimod-induced shortening of AERP in guinea pig model assessed as restoration of shortened AERP measured at 30 to 60 mins. The format is functional. The settings on record: time 30-60 min.
The target in data set [10] is T1, Potassium voltage-gated channel subfamily KQT member 1 (Homo sapiens, UniProt P51787).
T1 sequence (P51787 whole entry): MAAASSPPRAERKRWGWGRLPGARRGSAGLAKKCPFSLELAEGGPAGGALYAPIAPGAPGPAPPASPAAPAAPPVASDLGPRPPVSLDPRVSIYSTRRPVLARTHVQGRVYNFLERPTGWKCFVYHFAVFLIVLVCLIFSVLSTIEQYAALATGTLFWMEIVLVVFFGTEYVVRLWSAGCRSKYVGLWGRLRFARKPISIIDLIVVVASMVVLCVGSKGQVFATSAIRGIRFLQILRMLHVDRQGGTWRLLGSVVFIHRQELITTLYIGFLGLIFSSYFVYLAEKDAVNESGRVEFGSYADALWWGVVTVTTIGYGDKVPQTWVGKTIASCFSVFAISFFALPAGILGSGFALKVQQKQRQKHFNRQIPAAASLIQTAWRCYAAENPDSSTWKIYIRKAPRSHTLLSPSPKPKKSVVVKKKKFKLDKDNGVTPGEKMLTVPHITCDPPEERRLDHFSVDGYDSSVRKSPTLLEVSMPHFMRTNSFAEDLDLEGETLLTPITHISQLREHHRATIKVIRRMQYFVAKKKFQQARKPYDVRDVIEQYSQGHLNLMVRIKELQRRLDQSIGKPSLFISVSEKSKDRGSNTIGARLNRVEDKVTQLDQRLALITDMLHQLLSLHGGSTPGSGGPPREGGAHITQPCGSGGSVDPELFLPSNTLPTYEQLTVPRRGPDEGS
The data set can be described thus: Inhibition of recombinant human KCNQ1. The format is toxicity.

The nature of data set [11]: Toxicity in langendorff-perfused guinea pig heart assessed as effect on left ventricular action potential duration at 10 uM. The data set is classed as tissue-based, Cavia porcellus.
Data set [12] is described as follows: Cmax in rat administered as repeated dose for 6 days. The data set is classed as ADME. More on the design: time 6 day. The settings on record: in vivo.
For another data set, the target named is T2, Kir3.1/Kir3.2 (Homo sapiens, UniProt P48051+P48549).
T2 sequence (P48549 whole entry): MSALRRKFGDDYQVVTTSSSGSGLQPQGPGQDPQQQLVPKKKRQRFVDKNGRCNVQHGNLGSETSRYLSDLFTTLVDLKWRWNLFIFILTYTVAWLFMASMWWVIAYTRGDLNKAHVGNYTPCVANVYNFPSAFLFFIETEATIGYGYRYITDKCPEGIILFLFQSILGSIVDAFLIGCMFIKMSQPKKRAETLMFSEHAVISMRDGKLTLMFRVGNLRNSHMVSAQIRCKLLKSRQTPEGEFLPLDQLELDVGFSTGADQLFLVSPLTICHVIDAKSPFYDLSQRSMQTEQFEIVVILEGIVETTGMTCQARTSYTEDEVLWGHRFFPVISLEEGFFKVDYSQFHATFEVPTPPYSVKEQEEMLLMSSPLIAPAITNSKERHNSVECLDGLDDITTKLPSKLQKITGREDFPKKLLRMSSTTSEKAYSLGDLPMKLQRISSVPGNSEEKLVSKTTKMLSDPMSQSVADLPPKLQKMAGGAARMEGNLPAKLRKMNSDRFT
T2 sequence (P48051 whole entry): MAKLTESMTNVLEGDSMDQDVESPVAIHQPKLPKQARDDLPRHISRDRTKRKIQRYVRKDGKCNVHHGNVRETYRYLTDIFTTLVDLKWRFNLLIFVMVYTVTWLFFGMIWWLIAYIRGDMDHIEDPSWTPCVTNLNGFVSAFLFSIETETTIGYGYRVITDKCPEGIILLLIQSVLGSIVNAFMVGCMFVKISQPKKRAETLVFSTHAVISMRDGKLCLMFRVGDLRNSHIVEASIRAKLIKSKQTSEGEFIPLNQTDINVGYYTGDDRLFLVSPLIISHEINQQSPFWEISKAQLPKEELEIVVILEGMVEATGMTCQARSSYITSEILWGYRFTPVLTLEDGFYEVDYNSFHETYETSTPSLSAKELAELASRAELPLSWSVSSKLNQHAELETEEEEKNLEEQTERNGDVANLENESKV
The data set can be described thus: Inhibition of GIRK1/2 (unknown origin) channel. The data set is classed as protein-complex assay.

Data set [13] concerns the target Sodium channel protein type 5 subunit alpha (Homo sapiens, UniProt Q14524). The data set can be described thus: Inhibition of recombinant human Nav1.5. The format is toxicity.
A short description of data set [14]: Toxicity in rat assessed as NOAEL administered as repeated dose for 6 days. Conditions: in vivo, time 6 day.
The next data set addresses T3, Kir3.1/Kir3.4 (Homo sapiens, UniProt P48544+P48549).
T3 sequence (P48549 whole entry): T2 sequence (P48549 whole entry)
T3 sequence (P48544 whole entry): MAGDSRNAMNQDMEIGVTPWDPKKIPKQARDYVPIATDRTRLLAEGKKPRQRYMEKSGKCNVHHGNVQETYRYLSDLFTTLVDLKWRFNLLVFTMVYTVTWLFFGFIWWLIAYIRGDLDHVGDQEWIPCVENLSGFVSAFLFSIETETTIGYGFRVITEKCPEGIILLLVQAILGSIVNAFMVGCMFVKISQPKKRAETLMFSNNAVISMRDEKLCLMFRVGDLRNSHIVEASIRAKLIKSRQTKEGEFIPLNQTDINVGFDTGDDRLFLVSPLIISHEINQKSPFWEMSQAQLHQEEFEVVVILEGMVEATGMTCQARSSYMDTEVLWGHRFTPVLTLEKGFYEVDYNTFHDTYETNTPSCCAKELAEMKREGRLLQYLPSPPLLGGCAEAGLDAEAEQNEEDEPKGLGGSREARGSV
Description: Inhibition of recombinant human GIRK1/4 channel. The data set is classed as protein-complex assay.

The test system of data set [15] is Cavia porcellus. Description: Effect on AERP in guinea pig assessed as increase in AERP interval at 3 mg/kg, iv measured for 60 mins. The format is functional, organism-based.
Data set [16] in a line: Toxicity in langendorff-perfused guinea pig heart assessed as effect on coronary artery perfusion pressure at 10 uM. The format is tissue-based, Cavia porcellus.
Data set [17] can be described thus: Toxicity in langendorff-perfused guinea pig heart assessed as effect on left atrial action potential duration at 10 uM. The data set is classed as tissue-based, Cavia porcellus.
A short description of data set [18]: Toxicity in langendorff-perfused guinea pig heart assessed as effect on QT interval at 10 uM. The format is tissue-based, Cavia porcellus.
The target of data set [19] is Voltage-dependent L-type calcium channel subunit alpha-1C (Homo sapiens, UniProt Q13936). The data set can be described thus: Inhibition of recombinant human Cav1.2. The data set is classed as toxicity.
Sequence of Voltage-dependent L-type calcium channel subunit alpha-1C (Q13936 whole entry): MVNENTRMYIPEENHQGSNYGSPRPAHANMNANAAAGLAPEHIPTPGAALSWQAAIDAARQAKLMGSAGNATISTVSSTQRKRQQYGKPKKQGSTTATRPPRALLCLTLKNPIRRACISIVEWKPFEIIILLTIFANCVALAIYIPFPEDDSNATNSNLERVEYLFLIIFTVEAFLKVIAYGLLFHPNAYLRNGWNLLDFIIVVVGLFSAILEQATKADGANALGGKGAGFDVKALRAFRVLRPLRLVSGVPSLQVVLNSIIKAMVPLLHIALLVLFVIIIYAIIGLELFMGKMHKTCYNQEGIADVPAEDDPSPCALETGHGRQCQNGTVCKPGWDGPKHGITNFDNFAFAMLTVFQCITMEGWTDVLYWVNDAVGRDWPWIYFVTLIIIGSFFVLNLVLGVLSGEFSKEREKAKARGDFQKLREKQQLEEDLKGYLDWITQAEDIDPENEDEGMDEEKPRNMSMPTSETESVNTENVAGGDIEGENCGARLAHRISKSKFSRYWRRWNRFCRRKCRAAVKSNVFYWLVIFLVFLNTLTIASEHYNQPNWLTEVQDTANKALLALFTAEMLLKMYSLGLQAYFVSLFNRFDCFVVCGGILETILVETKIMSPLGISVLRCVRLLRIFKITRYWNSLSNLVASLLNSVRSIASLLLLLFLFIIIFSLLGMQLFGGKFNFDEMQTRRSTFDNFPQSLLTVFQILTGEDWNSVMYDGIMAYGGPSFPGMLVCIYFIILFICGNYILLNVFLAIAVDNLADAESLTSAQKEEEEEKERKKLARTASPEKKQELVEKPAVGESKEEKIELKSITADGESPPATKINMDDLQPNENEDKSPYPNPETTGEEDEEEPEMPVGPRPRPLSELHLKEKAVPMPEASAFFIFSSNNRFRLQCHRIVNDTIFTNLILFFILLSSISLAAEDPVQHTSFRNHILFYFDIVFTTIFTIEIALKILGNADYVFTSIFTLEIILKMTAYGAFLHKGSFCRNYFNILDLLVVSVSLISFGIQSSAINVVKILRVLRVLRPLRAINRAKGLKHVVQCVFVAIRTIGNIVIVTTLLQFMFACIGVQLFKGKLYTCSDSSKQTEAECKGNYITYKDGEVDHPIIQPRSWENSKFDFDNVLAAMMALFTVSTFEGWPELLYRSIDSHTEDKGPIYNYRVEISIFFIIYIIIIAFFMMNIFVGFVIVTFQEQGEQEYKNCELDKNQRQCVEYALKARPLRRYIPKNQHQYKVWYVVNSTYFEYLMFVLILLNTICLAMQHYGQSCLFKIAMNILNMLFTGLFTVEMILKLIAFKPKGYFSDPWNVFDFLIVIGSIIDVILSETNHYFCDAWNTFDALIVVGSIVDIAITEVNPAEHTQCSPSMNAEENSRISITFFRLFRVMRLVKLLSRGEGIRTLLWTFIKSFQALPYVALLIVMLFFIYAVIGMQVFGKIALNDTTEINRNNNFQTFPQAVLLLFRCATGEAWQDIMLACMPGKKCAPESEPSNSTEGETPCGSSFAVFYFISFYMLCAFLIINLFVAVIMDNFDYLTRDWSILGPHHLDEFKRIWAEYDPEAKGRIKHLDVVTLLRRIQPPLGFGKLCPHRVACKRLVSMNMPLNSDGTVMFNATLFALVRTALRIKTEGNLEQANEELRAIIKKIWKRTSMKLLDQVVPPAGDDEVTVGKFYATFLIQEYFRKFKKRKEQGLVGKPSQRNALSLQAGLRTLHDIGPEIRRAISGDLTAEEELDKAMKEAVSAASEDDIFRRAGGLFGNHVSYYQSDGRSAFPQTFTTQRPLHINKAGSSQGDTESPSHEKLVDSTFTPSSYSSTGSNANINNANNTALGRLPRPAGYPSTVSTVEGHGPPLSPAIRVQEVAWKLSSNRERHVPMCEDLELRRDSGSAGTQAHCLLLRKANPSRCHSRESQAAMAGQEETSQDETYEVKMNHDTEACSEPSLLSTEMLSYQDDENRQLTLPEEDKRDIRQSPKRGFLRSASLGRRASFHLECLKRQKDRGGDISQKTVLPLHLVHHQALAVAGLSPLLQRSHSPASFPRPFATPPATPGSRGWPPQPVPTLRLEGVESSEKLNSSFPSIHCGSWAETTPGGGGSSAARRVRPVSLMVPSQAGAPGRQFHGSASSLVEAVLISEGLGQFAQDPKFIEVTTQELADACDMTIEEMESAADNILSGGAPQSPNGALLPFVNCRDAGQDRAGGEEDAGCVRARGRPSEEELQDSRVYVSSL
Data set [20] deals with Cavia porcellus. Description: Effect on fingolimod-induced shortening of AERP in guinea pig model assessed as prolongation of shortened AERP at 3 mg/kg, iv measured at 20 to 30 mins. The data set is classed as functional, organism-based. Conditions: time 20-30 min.
Data set [21] can be described thus: Terminal half-life in iv dosed rat. The data set is classed as ADME, organism-based. Conditions: in vivo, read-out: beta t1/2 (converted).

The results in this text go back to ChEMBL document CHEMBL5252622, “Discovery of a brain-sparing GIRK1/4 inhibitor for pharmacological cardioversion of atrial fibrillation” (Bioorg Med Chem Lett, 2023).

Molecules are shown by their SMILES. Values after ≈ are worked out from the molar mass of the structure shown. Active and inactive are the calls of the source. The calls are words filed in the database; no cut-off is given here.

Sequence of Sodium channel protein type 5 subunit alpha (Q14524 whole entry): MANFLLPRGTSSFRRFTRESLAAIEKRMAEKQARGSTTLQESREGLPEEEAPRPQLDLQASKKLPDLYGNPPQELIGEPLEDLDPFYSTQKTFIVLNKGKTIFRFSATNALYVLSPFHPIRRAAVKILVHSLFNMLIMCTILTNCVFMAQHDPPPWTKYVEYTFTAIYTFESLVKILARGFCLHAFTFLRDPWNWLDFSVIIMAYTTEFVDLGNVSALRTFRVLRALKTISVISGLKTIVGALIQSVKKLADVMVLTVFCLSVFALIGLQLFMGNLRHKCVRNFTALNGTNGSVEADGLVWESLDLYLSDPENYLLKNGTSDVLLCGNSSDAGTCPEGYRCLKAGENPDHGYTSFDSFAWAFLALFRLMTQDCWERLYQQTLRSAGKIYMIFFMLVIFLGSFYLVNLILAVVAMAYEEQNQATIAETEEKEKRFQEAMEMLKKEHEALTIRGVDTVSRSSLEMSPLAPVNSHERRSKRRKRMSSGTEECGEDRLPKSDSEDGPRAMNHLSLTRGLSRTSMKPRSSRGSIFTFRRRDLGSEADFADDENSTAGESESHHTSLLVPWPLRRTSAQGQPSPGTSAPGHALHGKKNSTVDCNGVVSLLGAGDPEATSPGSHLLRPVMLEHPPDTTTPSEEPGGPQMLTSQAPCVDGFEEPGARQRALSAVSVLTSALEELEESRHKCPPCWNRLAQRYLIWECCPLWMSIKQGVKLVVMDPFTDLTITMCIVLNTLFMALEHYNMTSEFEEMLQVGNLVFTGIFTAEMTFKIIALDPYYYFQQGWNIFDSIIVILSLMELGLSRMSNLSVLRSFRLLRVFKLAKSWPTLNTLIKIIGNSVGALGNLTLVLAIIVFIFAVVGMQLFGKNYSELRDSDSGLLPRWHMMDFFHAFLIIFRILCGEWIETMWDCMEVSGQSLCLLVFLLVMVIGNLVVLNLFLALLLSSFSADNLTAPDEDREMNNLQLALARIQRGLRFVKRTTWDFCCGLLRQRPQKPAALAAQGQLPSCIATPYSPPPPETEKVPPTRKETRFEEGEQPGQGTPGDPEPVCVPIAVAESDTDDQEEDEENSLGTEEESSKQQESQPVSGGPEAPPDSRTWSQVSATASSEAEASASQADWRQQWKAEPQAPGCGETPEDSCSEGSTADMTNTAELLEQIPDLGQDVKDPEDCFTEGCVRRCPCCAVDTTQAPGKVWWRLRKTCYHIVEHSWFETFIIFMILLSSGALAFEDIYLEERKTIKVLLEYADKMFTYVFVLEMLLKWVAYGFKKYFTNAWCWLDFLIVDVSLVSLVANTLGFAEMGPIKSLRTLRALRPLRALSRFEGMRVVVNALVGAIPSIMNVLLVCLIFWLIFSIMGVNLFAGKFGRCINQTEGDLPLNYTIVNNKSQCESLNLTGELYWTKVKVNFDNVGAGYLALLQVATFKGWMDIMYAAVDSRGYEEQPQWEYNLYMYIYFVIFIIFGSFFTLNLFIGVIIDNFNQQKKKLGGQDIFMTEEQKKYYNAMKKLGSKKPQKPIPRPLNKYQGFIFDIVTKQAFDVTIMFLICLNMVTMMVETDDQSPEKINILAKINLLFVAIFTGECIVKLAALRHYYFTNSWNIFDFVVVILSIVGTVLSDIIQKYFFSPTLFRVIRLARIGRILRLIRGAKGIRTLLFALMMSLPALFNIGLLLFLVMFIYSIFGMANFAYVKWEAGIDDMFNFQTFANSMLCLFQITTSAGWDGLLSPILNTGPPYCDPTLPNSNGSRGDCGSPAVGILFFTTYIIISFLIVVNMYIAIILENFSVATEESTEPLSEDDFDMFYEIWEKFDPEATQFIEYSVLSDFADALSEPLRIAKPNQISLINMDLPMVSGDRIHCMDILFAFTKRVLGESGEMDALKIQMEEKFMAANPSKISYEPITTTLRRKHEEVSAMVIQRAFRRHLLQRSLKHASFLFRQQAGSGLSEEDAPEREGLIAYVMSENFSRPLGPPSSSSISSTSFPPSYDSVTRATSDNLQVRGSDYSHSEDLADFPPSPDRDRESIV

In the case of `O=c1cc(CO)n(-c2c(Cl)cccc2Cl)c2c(Cl)cnc(OC[C@H](O)CO)c12`, the Ratio in the data set with MDCK was 13.5. In addition, the Cmax in data set [1] and in [12] was 193 µM in each case. In data set [2], this molecule gave a clearance of 35 mL/min/kg. Also, the Kp at 0.5 h in [3] amounted to 0.02. Further, in data set [4], the thermodynamic solubility was found to be 1000 µM (≈ 446 µg/mL). The IC50 in data set [5] was more than 50000 nM; in [10], more than 50000 nM; against Kir3.1/Kir3.2 it was 100 nM; in [13], more than 50000 nM; at Kir3.1/Kir3.4, 100 nM; in [19], more than 50000 nM. The apical-to-basolateral permeability (Papp A→B) in [6] came to 8.7 ×10⁻⁶ cm/s. Further, the NOAEL in [7] was determined as 75 mg/kg. In addition, the Activity result in [8], in data set [11], in data set [16], in [17] and in data set [18] was “Non-Toxic” in each case. In addition, the EC90 in the data set filed under Cavia porcellus [9] stood at 1200 nM. Also, in data set [14], the no-observed-adverse-effect level (NOAEL) at 144 h turned out to be 75 mg/kg. Moreover, the result in the data set with Cavia porcellus [15] and in the data set with Cavia porcellus [20] was Active. Further, in [21], the half-life is 1.3 h.
